Measured values as given in ChEMBL document CHEMBL5291721, “A preclinical secondary pharmacology resource illuminates target-adverse drug reaction associations of marketed drugs” (Nat Commun, 2023).
Each block holds one compound with its values, some of them ahead of it.

How the values were obtained:
[1] = target: T1, Retinoic acid receptor alpha (Homo sapiens, UniProt P10276); format: functional, cell-based
T1 sequence (P10276 whole entry): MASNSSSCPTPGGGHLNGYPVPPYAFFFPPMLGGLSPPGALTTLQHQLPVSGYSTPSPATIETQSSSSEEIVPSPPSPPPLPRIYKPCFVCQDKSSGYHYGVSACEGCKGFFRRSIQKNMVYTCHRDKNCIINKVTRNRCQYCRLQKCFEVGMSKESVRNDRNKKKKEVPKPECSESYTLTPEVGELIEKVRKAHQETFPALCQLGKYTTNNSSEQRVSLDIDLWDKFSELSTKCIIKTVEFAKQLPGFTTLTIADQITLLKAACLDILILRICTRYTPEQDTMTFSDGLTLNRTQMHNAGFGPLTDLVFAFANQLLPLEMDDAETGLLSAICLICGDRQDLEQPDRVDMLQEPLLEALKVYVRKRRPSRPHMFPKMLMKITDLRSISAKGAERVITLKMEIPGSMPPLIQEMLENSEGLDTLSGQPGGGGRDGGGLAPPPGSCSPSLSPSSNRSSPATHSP

[2] = target: T2, Retinoic acid receptor beta (Homo sapiens, UniProt P10826); format: functional, cell-based
T2 sequence (P10826 whole entry): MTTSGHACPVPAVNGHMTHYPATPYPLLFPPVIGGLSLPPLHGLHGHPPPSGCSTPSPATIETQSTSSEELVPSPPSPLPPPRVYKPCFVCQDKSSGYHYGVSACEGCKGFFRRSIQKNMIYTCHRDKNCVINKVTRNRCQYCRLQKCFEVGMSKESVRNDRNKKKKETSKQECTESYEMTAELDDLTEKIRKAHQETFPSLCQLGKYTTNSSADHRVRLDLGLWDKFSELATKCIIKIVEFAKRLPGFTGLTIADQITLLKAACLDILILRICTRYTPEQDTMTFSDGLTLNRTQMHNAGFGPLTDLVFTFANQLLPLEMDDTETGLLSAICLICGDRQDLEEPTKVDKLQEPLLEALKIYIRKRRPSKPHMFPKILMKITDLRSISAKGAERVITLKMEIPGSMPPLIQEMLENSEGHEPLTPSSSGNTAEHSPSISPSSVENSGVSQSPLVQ

[3] = target: T1, Retinoic acid receptor alpha; format: functional, cell-based; remark: listed apart in the source
[4] = target: T3, Oxysterols receptor LXR-alpha (Homo sapiens, UniProt Q13133); format: functional
T3 sequence (Q13133 whole entry): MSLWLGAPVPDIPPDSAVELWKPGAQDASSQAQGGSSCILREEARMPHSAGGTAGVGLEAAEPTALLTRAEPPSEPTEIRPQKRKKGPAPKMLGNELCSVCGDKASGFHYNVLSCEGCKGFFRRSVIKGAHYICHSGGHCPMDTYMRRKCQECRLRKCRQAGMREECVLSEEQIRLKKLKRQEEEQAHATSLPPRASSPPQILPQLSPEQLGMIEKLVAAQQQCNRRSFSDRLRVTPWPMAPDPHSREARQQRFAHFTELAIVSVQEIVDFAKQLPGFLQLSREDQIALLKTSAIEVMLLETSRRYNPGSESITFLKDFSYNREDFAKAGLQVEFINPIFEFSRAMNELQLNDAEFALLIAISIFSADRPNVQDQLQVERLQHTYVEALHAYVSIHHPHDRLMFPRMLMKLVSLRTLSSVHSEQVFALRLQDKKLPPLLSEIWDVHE

[5] = target: T3, Oxysterols receptor LXR-alpha; format: functional; remark: listed apart in the source
Substance-K receptor = target: T4, Substance-K receptor (Homo sapiens, UniProt P21452)
T4 sequence (P21452 whole entry): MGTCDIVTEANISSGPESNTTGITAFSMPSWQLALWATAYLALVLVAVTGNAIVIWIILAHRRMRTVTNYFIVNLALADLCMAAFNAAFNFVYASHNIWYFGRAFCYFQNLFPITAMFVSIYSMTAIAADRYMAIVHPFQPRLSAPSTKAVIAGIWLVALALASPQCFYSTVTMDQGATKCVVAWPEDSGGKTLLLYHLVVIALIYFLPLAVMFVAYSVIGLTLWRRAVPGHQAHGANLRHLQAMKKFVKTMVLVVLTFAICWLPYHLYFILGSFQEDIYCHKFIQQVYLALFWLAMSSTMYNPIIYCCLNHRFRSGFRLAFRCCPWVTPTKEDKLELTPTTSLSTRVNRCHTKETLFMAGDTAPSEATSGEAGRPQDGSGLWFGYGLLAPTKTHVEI

Androgen receptor = target: T5, Androgen receptor (Rattus norvegicus, UniProt P15207); format: functional
T5 sequence (P15207 whole entry): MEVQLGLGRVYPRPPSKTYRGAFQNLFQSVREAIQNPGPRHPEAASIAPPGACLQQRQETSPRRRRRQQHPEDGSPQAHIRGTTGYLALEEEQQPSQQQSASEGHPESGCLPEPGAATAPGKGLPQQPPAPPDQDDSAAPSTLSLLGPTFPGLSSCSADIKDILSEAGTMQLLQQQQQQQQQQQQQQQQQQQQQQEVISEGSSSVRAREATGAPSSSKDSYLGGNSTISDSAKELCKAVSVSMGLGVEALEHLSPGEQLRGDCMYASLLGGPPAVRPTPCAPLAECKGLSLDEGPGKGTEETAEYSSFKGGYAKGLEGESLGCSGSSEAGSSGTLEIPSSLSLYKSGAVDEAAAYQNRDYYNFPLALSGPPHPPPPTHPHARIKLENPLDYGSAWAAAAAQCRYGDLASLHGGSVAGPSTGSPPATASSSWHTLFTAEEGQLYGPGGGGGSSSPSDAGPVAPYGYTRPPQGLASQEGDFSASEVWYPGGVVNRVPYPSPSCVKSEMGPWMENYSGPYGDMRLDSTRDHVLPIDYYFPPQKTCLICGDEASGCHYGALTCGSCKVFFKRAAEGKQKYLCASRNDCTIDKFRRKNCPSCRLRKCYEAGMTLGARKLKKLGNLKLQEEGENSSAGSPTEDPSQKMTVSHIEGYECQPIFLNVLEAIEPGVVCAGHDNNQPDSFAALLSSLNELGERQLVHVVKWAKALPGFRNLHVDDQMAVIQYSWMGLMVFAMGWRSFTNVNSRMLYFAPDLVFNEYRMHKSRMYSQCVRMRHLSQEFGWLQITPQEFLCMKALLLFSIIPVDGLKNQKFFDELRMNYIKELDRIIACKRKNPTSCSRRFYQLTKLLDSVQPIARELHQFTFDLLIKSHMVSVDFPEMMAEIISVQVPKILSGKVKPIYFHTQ
Also: assay procedure not described here.

AC50 [1]: > 30 µM
AC50 [2]: > 30 µM
AC50 [3]: > 30 µM
AC50 [4]: > 30 µM
AC50 [5]: > 30 µM
Compound: CC(C)/N=c1\cc2n(-c3ccc(Cl)cc3)c3ccccc3nc-2cc1Nc1ccc(Cl)cc1 [CLOFAZIMINE]

Compound: CCOC(=O)[C@H](CCc1ccccc1)N[C@@H](C)C(=O)N1Cc2ccccc2C[C@H]1C(=O)O
AC50 (Substance-K receptor): > 10 µM

AC50 (Androgen receptor): > 30 µM
Compound: CCN(CC)CCn1c(=O)c(Cc2ccc(OC)cc2)nc2ccccc21 [CAROVERINE]
